Laboratory results: ChEMBL document CHEMBL1201862, “PubChem BioAssay data set” (2004)
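Dose response: 5 concentrations. Exposure: 48 h. Format: 96-well plates. Endpoint: linear interpolation; highest concentration if not reached. GI50 is the concentration that inhibits growth by half.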 Calls of active or inactive are those of the source. No stated cut-off is given here; in the data, active = GI50 up to about 1.1 µM and inactive = higher.

Assays:
Assay in all cases: inhibition of tumour cell growth, NCI panel, 48 h
ACHN = tested on: ACHN
IGROV-1 = tested on: IGROV-1
SF-539 = tested on: SF-539
NCI/ADR-RES = tested on: NCI/ADR-RES
SR = tested on: SR
RXF 393 = tested on: RXF 393
HOP-62 = tested on: HOP-62
MCF7 = tested on: MCF7
Hs-578T = tested on: Hs-578T
MDA-MB-435 = tested on: MDA-MB-435
SK-MEL-28 = tested on: SK-MEL-28
T47D = tested on: T47D
MDA-N = tested on: MDA-N
SW-620 = tested on: SW-620
EKVX = tested on: EKVX
SK-OV-3 = tested on: SK-OV-3
UACC-257 = tested on: UACC-257
CCRF-CEM = tested on: CCRF-CEM
LOX IMVI = tested on: LOX IMVI
SF-268 = tested on: SF-268
NCI-H23 = tested on: NCI-H23
786-0 = tested on: 786-0
Malme-3M = tested on: Malme-3M
HT-29 = tested on: HT-29
NCI-H460 = tested on: NCI-H460
K562 = tested on: K562
UO-31 = tested on: UO-31
OVCAR-3 = tested on: OVCAR-3
U-251 = tested on: U-251
SNB-75 = tested on: SNB-75
SK-MEL-2 = tested on: SK-MEL-2
SN12C = tested on: SN12C
HCT-116 = tested on: HCT-116
M14 = tested on: M14
SK-MEL-5 = tested on: SK-MEL-5
UACC-62 = tested on: UACC-62
MOLT-4 = tested on: MOLT-4
SF-295 = tested on: SF-295
OVCAR-5 = tested on: OVCAR-5
A549 = tested on: A549
BT-549 = tested on: BT-549
SNB-19 = tested on: SNB-19
PC-3 = tested on: PC-3
RPMI-8226 = tested on: RPMI-8226
OVCAR-8 = tested on: OVCAR-8
OVCAR-4 = tested on: OVCAR-4
HCC 2998 = tested on: HCC 2998
COLO 205 = tested on: COLO 205
CAKI-1 = tested on: CAKI-1
HCT-15 = tested on: HCT-15
DU-145 = tested on: DU-145
KM12 = tested on: KM12
NCI-H522 = tested on: NCI-H522
MDA-MB-231 = tested on: MDA-MB-231
TK-10 = tested on: TK-10

Structure (SMILES): Clc1sc(Cl)c2c1[C@H](Br)C[C@@H]2Cl
- GI50 (ACHN): 18.8 µM (inactive)
- GI50 (IGROV-1): 13.2 µM (inactive)
- GI50 (SF-539): 15.8 µM (inactive)
- GI50 (NCI/ADR-RES): 17.7 µM (inactive)
- GI50 (SR): 15.7 µM (inactive)
- GI50 (RXF 393): 26 µM (inactive)
- GI50 (HOP-62): 83.9 µM (inactive)
- GI50 (MCF7): 12.5 µM (inactive)
- GI50 (Hs-578T): 22.8 µM (inactive)
- GI50 (MDA-MB-435): 18.4 µM (inactive)
- GI50 (SK-MEL-28): 29 µM (inactive)
- GI50 (T47D): 36.4 µM (inactive)
- GI50 (MDA-N): 41.7 µM (inactive)
- GI50 (SW-620): 21.6 µM (inactive)
- GI50 (EKVX): 35.9 µM (inactive)
- GI50 (SK-OV-3): > 100 µM (inactive)
- GI50 (UACC-257): 29.4 µM (inactive)
- GI50 (CCRF-CEM): 17.5 µM (inactive)
- GI50 (LOX IMVI): 18.2 µM (inactive)
- GI50 (SF-268): 23 µM (inactive)
- GI50 (NCI-H23): 17.8 µM (inactive)
- GI50 (786-0): 32.9 µM (inactive)
- GI50 (Malme-3M): 21.9 µM (inactive)
- GI50 (HT-29): 35 µM (inactive)
- GI50 (NCI-H460): 41.6 µM (inactive)
- GI50 (K562): 38.5 µM (inactive)
- GI50 (UO-31): 18.3 µM (inactive)
- GI50 (OVCAR-3): 23.8 µM (inactive)
- GI50 (U-251): 27.7 µM (inactive)
- GI50 (SNB-75): > 100 µM (inactive)
- GI50 (SK-MEL-2): 59.8 µM (inactive)
- GI50 (SN12C): 29.5 µM (inactive)
- GI50 (HCT-116): 27.9 µM (inactive)
- GI50 (M14): 20.3 µM (inactive)
- GI50 (SK-MEL-5): 46.9 µM (inactive)
- GI50 (UACC-62): 20.9 µM (inactive)
- GI50 (MOLT-4): 19.1 µM (inactive)
- GI50 (SF-295): 99.5 µM (inactive)
- GI50 (OVCAR-5): > 100 µM (inactive)
- GI50 (A549): 32.9 µM (inactive)
- GI50 (BT-549): 18.2 µM (inactive)
- GI50 (SNB-19): 57.7 µM (inactive)
- GI50 (PC-3): 40.3 µM (inactive)
- GI50 (RPMI-8226): 30.2 µM (inactive)
- GI50 (OVCAR-8): 27.6 µM (inactive)
- GI50 (OVCAR-4): 55.8 µM (inactive)
- GI50 (HCC 2998): 37.8 µM (inactive)
- GI50 (COLO 205): 20.1 µM (inactive)
- GI50 (CAKI-1): 26.2 µM (inactive)
- GI50 (HCT-15): 17.1 µM
- GI50 (DU-145): 33.7 µM (inactive)
- GI50 (KM12): 39.8 µM (inactive)
- GI50 (NCI-H522): 16.9 µM (inactive)
- GI50 (MDA-MB-231): 21.4 µM (inactive)
- GI50 (TK-10): 33.7 µM (inactive)
